Tested on: CTLL-2 (ATCC TIB-214) cytotoxic T lymphocytes
Test: In vitro screening platform for immunomodulation, CTLL-2 T-lymphocyte density
Format: cell-based
Description: An in vitro screening platform for immunomodulation was used to evaluate mebenzadole for efficacy. CTLL-2 (ATCC® TIB-214™) are cytotoxic T lymphocytes that were purchased and cultured according to ATCC protocol. […] The maximum volume added to the 1 mL of each of the 12 wells was 10 μL for the highest test concentration of mebenzadole and the control.

COC(=O)Nc1nc2ccc(C(=O)c3ccccc3)cc2[nH]1 [mebendazole, methyl 5-benzoylbenzimidazole-2-carbamate]
effect on T-lymphocytes (FIG. 1) (CTLL-2 cell culture, 1 nM to 1 μM): dose dependently kill T-lymphocytes
test concentration at which significant reduction of T-lymphocytes starts (CTLL-2 cell culture, mebendazole in DMSO, 1 nM, 5 nM, 500 nM and 1 μM tested vs DMSO control): 1 nM
concentration at which significant reduction of CD+8 T cells starts, as mass concentration (in DMSO, equivalent given for 1 nM): 0.295 μg per mL
